Laboratory results taken from patent US20210361768A1, “METHODS AND MATERIALS FOR ASSESSING AND TREATING CANCERS” (Mayo Foundation for Medical Education and Research, priority 2018, published 2021).

System: HER2-positive breast cancer
Experiment: NeoALTTO trial: pathologic complete response and event-free survival by treatment arm and adaptive immune signature (AIS) status
Format: in vivo, human
Details: NeoALTTO patients
[1] = AIS deficient, listed as lapatinib

With `CS(=O)(=O)CCNCc1ccc(-c2ccc3ncnc(Nc4ccc(OCc5cccc(F)c5)c(Cl)c4)c3c2)o1` [Lapatinib, lapatinib] the “%6-yr EFS (6-year Event Free Survival rate)” value (AIS deficient) was 68%, the “% pCR (complete pathological response rate)” value (AIS deficient) was 17% and the “%6-yr EFS (6-year Event Free Survival rate)” value [1] was 68%. For the same compound, the “% pCR (complete pathological response rate)” value [1] was 17%, the “%6-yr EFS (6-year Event Free Survival rate)” value (AIS enrich) was 65% and the “% pCR (complete pathological response rate)” value (AIS enrich) was 21%.
